Biological target: T1, human protein kinase CK2 (holoenzyme) (Homo sapiens, UniProt P68400)
T1 construct: gene CSNK2A1; CK2 holoenzyme, recombinant, expressed in E. coli; with CK2 regulatory subunit beta (CSNK2B), as part of the holoenzyme
Assay: capillary electrophoresis-based kinase activity assay, peptide substrate RRRDDDSDDD
Assay type: biochemical

T1 sequence (P68400 whole entry): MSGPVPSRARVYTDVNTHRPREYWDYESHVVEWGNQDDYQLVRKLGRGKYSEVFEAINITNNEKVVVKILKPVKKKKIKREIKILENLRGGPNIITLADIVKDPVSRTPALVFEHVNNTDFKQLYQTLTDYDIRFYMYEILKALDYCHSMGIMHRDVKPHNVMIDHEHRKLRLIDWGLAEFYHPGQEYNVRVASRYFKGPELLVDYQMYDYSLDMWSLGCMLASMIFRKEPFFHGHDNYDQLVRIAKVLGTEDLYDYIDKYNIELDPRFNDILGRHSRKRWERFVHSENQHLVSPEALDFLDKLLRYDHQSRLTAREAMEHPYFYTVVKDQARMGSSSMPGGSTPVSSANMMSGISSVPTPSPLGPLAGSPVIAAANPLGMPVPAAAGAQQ
T1 sequence (P67870 2-215 partner): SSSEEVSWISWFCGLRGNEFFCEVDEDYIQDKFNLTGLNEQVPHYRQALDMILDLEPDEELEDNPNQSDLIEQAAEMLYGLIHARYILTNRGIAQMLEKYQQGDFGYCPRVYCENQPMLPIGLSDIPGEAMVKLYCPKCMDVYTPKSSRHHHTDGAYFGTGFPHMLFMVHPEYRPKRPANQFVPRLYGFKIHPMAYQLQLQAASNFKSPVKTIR

**Q.** How did the IC50 turn out when `COC1=CC(=O)c2c(c(O)c3oc4cc(OC)cc(C)c4c(=O)c3c2O)C1=O` [ZINC05765165, 6,11-dihydroxy-3,8-dimethoxy-1-methylbenzo[b]xanthene-7,10,12-trione] was run?
**A.** 1.24 µM
